How the values were obtained:
[1] = molecular target: T1, Cannabinoid receptor 1 (Homo sapiens, UniProt P21554); assay: Binding affinity to human recombinant CB1 receptor
[2] = molecular target: T1, Cannabinoid receptor 1; assay: Agonist activity at human recombinant CB1 receptor expressed in CHO cells by [35S]GTP-gamma-S binding assay; assay type: functional, cell-based
[3] = system: Mus musculus; assay: Reduction of nociception in ip dosed NMRI mouse during late phase (10 to 30 mins); assay type: functional
[4] = system: Mus musculus; assay: Induction of hypokinesia NMRI mouse at 0.3 mg/kg, ip; assay type: organism-based; design: dose 0.3 mg/kg, route intraperitoneal; conditions: in vivo
[5] = system: Mus musculus; assay: Induction of hypotonia NMRI mouse at 0.3 mg/kg, ip; assay type: organism-based; design: dose 0.3 mg/kg, route intraperitoneal; conditions: in vivo
[6] = molecular target: Cannabinoid receptor 2 (Homo sapiens, UniProt P34972); assay: Binding affinity to CB2 receptor
[7] = system: Mus musculus; assay: Reduction of nociception in NMRI mouse during early phase (0 to 5 mins) at 10 mg/kg, ip by formalin test; assay type: functional; design: scale not given: the % may be the effect or the level left; conditions: route intraperitoneal
[8] = system: Mus musculus; assay: Reduction of nociception in NMRI mouse during early phase (0 to 5 mins) at 30 mg/kg, ip by formalin test; assay type: functional; design: scale not given: the % may be the effect or the level left; conditions: route intraperitoneal
[9] = system: Mus musculus; assay: Reduction of nociception in NMRI mouse during early phase (0 to 5 mins) at 90 mg/kg, ip by formalin test; assay type: functional; design: scale not given: the % may be the effect or the level left; conditions: route intraperitoneal
[10] = system: Mus musculus; assay: Reduction of nociception in NMRI mouse during early phase (0 to 5 mins) at 80 mg/kg, ip by formalin test; assay type: functional; design: scale not given: the % may be the effect or the level left; conditions: route intraperitoneal
[11] = system: Mus musculus; assay: Reduction of nociception in NMRI mouse during late phase (10 to 30 mins) at 10 mg/kg, ip by formalin test; assay type: functional; design: scale not given: the % may be the effect or the level left; conditions: route intraperitoneal
[12] = system: Mus musculus; assay: Reduction of nociception in NMRI mouse during late phase (10 to 30 mins) at 30 mg/kg, ip by formalin test; assay type: functional; design: scale not given: the % may be the effect or the level left; conditions: route intraperitoneal
[13] = system: Mus musculus; assay: Reduction of nociception in NMRI mouse during late phase (10 to 30 mins) at 90 mg/kg, ip by formalin test; assay type: functional; design: scale not given: the % may be the effect or the level left; conditions: route intraperitoneal
[14] = system: Mus musculus; assay: Reduction of nociception in NMRI mouse during late phase (10 to 30 mins) at 180 mg/kg, ip by formalin test; assay type: functional; design: scale not given: the % may be the effect or the level left; conditions: route intraperitoneal
[15] = system: Mus musculus; assay: Induction of hypokinesia with reduced postural tone NMRI mouse at 180 mg/kg, ip; assay type: organism-based; design: dose 180 mg/kg, route intraperitoneal; conditions: in vivo
[16] = species on record: Homo sapiens
Description: Selectivity for CB2 receptor over human recombinant CB1 receptor

[17] = molecular target: Cannabinoid receptor 1 (Mus musculus) (UniProt P47746); conditions: Vas deferens
Description: Agonist activity at CB1 receptor assessed as inhibition of electrically-induced twitch contraction amplitude in mouse vas deferens

[18] = molecular target: Cannabinoid receptor 1 (Mus musculus) (UniProt P47746); conditions: Vas deferens; 0.1 uM
Description: Agonist activity at CB1 receptor assessed as inhibition of electrically-induced twitch contraction amplitude in mouse vas deferens at 0.1 uM relative to WIN-55212-2

T1 sequence (P21554 whole entry): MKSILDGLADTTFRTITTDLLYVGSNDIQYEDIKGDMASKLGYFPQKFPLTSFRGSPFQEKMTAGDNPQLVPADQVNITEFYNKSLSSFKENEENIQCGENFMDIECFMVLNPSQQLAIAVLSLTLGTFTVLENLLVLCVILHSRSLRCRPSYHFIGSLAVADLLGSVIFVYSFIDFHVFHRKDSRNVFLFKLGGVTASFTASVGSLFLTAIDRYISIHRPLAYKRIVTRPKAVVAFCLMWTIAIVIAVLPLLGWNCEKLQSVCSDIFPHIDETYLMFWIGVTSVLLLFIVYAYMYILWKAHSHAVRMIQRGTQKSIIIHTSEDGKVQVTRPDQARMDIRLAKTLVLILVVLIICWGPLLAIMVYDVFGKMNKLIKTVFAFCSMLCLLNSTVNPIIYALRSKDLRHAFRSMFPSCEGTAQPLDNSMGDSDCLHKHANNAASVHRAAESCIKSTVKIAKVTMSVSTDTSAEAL
Cannabinoid receptor 1 (Mus musculus), sequence (P47746 whole entry): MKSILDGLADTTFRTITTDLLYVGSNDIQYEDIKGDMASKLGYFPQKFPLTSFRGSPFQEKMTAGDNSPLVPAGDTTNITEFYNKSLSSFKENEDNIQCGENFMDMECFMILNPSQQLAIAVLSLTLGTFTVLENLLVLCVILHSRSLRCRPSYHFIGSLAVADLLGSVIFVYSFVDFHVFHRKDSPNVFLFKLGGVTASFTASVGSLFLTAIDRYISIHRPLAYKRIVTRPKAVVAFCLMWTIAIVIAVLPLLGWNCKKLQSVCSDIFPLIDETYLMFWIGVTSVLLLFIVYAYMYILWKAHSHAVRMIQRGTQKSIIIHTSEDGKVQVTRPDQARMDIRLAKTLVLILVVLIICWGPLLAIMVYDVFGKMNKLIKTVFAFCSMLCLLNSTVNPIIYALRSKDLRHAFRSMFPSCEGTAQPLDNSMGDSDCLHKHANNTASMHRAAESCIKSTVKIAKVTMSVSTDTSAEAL
Cannabinoid receptor 2, sequence (P34972 whole entry): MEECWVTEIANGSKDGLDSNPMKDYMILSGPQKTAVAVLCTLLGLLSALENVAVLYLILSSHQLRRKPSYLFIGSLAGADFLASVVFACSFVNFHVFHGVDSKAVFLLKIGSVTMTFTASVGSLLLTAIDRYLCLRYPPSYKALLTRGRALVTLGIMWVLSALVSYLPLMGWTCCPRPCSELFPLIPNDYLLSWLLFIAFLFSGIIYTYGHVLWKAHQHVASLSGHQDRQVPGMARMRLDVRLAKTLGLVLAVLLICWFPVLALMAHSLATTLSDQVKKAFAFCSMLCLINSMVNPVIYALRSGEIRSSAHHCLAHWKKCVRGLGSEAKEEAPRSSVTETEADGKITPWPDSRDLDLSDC

O=C(Nc1ccccc1O)c1ccc(Cl)c(S(=O)(=O)N2CCCCCC2)c1
IC50 [1]: 200 nM
EC50 [2]: 1260 nM

Cc1ccc(C(=O)Nc2ccccc2)cc1S(=O)(=O)N1CCCC1
IC50 [1]: 6310 nM
EC50 [2]: > 10000 nM

O=C(Nc1ccc(Cl)c(S(=O)(=O)N2CCOCC2)c1)c1ccccc1Cl
IC50 [1]: 1580 nM
EC50 [2]: > 10000 nM

Cc1ccc(C(=O)Oc2ccccc2Br)cc1S(=O)(=O)N1CCOCC1
IC50 [1]: 31.6 nM
EC50 [2]: 398 nM

Cc1c(C(=O)c2cccc3ccccc23)c2cccc3c2n1[C@H](CN1CCOCC1)CO3 [WIN-552122]
ED50 [3]: 0.21 mg/kg
Activity [4]: Toxic
Activity [5]: Toxic

O=C(Oc1cccc2cccnc12)c1cccc(S(=O)(=O)N2CCCCC2)c1
IC50 [1]: 15.8 nM
EC50 [2]: 50.1 nM

Cc1ccc(C(=O)Nc2cccc(F)c2)cc1S(=O)(=O)N1CCCCC1
IC50 [1]: 1260 nM
EC50 [2]: > 10000 nM

Cc1ccc(NC(=O)c2ccc(C)c(S(=O)(=O)N3CCCCC3)c2)nc1
IC50 [1]: 3160 nM
EC50 [2]: > 10000 nM

Cc1ccc(NC(=O)c2ccc(C)c(S(=O)(=O)N3CCCCC3)c2)cc1
IC50 [1]: 7940 nM
EC50 [2]: > 10000 nM

COc1ccccc1OC(=O)c1ccc(C)c(S(=O)(=O)N2CCOCC2)c1
IC50 [1]: 3160 nM
EC50 [2]: 63.1 nM

Cc1ccc(C(=O)Nc2cccc3cnccc23)cc1S(=O)(=O)N1CCCCC1
IC50 [1]: 1260 nM
EC50 [2]: 6310 nM

COc1ccc(C(=O)Oc2cccc3cccnc23)cc1S(=O)(=O)N1CCOCC1
IC50 [1]: 39.8 nM
EC50 [2]: 398 nM

Cc1ccc(NC(=O)c2ccccc2Oc2ccccc2)cc1S(=O)(=O)N1CCOCC1
IC50 [1]: 2000 nM
EC50 [2]: > 10000 nM

Nc1cccc(NC(=O)c2cccc(S(=O)(=O)N3CCCCC3)c2)c1
IC50 [1]: 5010 nM
EC50 [2]: > 10000 nM

Cc1ccc(C(=O)O)cc1S(=O)(=O)N1CCCCC1
IC50 [1]: > 10000 nM
EC50 [2]: > 10000 nM

O=C(Nc1ccc(Cl)c(S(=O)(=O)N2CCOCC2)c1)c1ccccc1
IC50 [1]: 3980 nM
EC50 [2]: 631 nM

O=C(Oc1cccc2cccnc12)c1cccc(S(=O)(=O)N2CCCCCC2)c1
IC50 [1]: 50.1 nM
EC50 [2]: 200 nM

COc1ccccc1NC(=O)c1cccc(S(=O)(=O)N2CCCCC2)c1
IC50 [1]: > 10000 nM

O=C(Nc1ccc(Cl)c(S(=O)(=O)N2CCOCC2)c1)c1cccc2ccccc12
IC50 [1]: 398 nM
EC50 [2]: 794 nM

Cc1ccc(NC(=O)c2cccc(C#N)c2)cc1S(=O)(=O)N1CCOCC1
IC50 [1]: 1580 nM
EC50 [2]: 5010 nM

Cc1ccc(C(=O)Oc2cccc3cccnc23)cc1S(=O)(=O)N1CCOCC1
IC50 [1]: 1.26 nM
EC50 [2]: 12.6 nM

Cc1ccc(C(=O)Oc2cccc3cccnc23)cc1S(=O)(=O)N1CCCCC1
IC50 [1]: 0.794 nM
EC50 [2]: 10 nM
Ki [6]: 25.1 nM
Activity [7]: -1%
Activity [8]: -1%
Activity [9]: -53%
Activity [10]: -54%
Activity [11]: -15%
Activity [12]: -50%
Activity [13]: -71%
Activity [14]: -59%
Activity [15]: Toxic
logSI [16]: 1
pD2 [17]: 6.42
inhibition [18]: 87.3%

O=C(Oc1cccc2cccnc12)c1cccc(S(=O)(=O)N2CCCC2)c1
IC50 [1]: 158 nM
EC50 [2]: 631 nM

Cc1ccc(C(=O)Nc2ccccc2)cc1S(=O)(=O)N1CCCCC1
IC50 [1]: 3160 nM
EC50 [2]: > 10000 nM

Source: ChEMBL document CHEMBL1138374, “Arylsulfonamides as a new class of cannabinoid CB1 receptor ligands: identification of a lead and initial SAR studies” (Bioorg Med Chem Lett, 2007)
